{"source": "patent US6376540B1", "about": "“Furan nitrone compounds” (Centaur Pharmaceuticals, Inc., priority 1996, dated 2002)", "key": {"[1]": {"biological_target": "T1, synthetic Aβ(1-40) (Homo sapiens, UniProt P05067)", "T1 construct": "3 μL of Aβ(1-40)(3 μg) prepared with dH2O", "T1 sequence (P05067 672-711 limits assumed)": "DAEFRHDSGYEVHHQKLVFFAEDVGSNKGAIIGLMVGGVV", "experiment": "Inhibition of Aβ(1-40) beta-pleated sheet formation (ThT fluorescence)", "type": "biochemical", "details": "10 μM compound, ThT 3 μM, PBS pH 6.0, 12 hours; read-out: inhibition of Aβ(1-40) beta-pleated sheet formation compared to the controls", "excerpt": "The deposition of amyloid β-peptide (Aβ) is associated with the development of Alzheimer's disease. See, for example, G. G. Glenner et al. (1984) Biochem. Biophys. Res. Commun., 120:885-890; and R. E. Tanzi (1989) Ann. Med., 21:91-94. Accordingly, compounds which effectively disrupt the formation of Aβ(1-40) or Aβ(1-42) beta-pleated sheets are potentially useful for preventing and/or reversing such amyloid deposits. Thioflavin T (ThT) is known to rapidly associate with beta-pleated sheets, particularly the aggregated fibrils of synthetic Aβ(1-40). This association gives rise to a new excitation maximum at 440 nm and to enhanced emission at 490 nm.\nThe experiments were performed using a CytoFluor II fluorescence plate reader having the following parameters:\nInto each well was aliquoted 95 μl of ThT (3 μM) prepared in PBS (pH 6.0), 2 μL of the compound to be tested (10 μM) prepared with 0.05% of methylcellulose in PBS (pH 6.0), and 3 μL of Aβ(1-40)(3 μg) prepared with dH2O (the compounds prepared in Examples 1, 3, 4, 5, 6, 7, 8, 9, 11 and 12 were tested). The fluorescence measurement began when the Aβ(1-40) was added and continued for a total of 12 hours. The percent inhibition of beta-pleated sheet formation was calculated from the relative fluorescence unit difference between aggregation in the presence and in the absence of the test compounds."}, "[2]": {"system": "primary neuronal/astrocyte cultures", "experiment": "Protection against Aβ(1-40)-induced neuronal cell loss", "type": "cell-based, Sprague Dawley rat", "details": "similar manner using Aβ(1-40) instead of Aβ(25-35)", "protocol": "Patients with Alzheimer's disease are known to suffer a progressive loss of neuronal cells. See, for example, P. J. Whitehause et al., (1982) Science, 215:1237-1239. […] Sprague Dawley rat hippocampus of 18-day-gestation embryos was excised and then dissociated by trituration to prepare primary neuronal/astrocyte cultures. Cells (3×10^5) were plated on 35 mm poly-D-lysine-coated plates containing Eagle's minimum essential medium supplemented with 10% fetal bovine serum. After 3-5 hours, the original medium was removed and replaced with 1 mL of fresh medium. Cultures were maintained at 37° C. in a 5% CO2/95% air humidified incubator.\nTo the cells (7 DIV) was added 30 μM of Aβ(25-35) dissolved in dH2O (stored at −20° C.) and 100 μM of the test compound (i.e., a compound of Example 1, 3, 4, 5, 6, 7, 8, 12 or 13 above) in 1% methylcellulose. Controls were also conducted without the test compound. The percentage of morphologically viable neurons was determined counting the number of viable neurons after 96 hours treatment compared to the number of neurons before treatment in the same premarked culture regions (three regions/culture, n=6).\nIn experiments conducted in a similar manner using Aβ(1-40) instead of Aβ(25-35), the compound prepared in Example 1 above reduced Aβ(1-40)-induced neuronal cell loss by 46% compared to the controls."}, "[3]": {"system": "Male Sprague-Dawley rats", "experiment": "Locomotor impairment due to Aβ(25-35), apomorphine-induced circling", "type": "in vivo, rat", "details": "one hour before and three hours post Aβ injection, apomorphine 0.5 mg/kg s.c. one week after", "protocol": "Male Sprague-Dawley rats (250-400 g) were given an ipsilateral injection of 20 μg of Aβ(25-35) into their substantia nigra. Prior to the injection, the rats were fasted overnight and then each received an oral treatment of N-isopropyl-α-(2-sulfofuran-5-yl)nitrone sodium salt (prepared in Example 1 above)(10-100 mg/kg) dissolved in aqueous 1% methyl cellulose or the vehicle alone, one hour before and three hours post the Aβ-peptide stereotaxic injection. One week after treatment, the rats were dosed s.c. with 0.5 mg/kg apomorphine (dissolved in 0.1% vitamin C in isotonic saline) and the circling reflex was monitored using a Rotorat computerized behavioral monitoring apparatus for the time period between 15 and 30 minutes of being placed in the arena. Impairment of the animals due to Aβ-peptide was determined by measuring the number of rotations over the 15 minute period. A higher number of rotations per period indicates more physical impairment."}, "[4]": {"system": "female Lewis rats", "experiment": "MBP-induced experimental allergic encephalomyelitis (EAE), behavioral score", "type": "in vivo, rat", "details": "100 mg/kg po once a day from days 4 to 18", "protocol": "Experimental allergic encephalomyelitis (EAE) induced by injection of myelin basic protein (MBP) or MBP peptide fragments is reported to be a useful model for MS. See, for example, D. E. McFarlin et al., “Recurrent Experimental Allergic Encephalomyelitis in the Lewis Rat,” The Journal of Immunology, 113(2): 712-715 (1974).\n(§1) Acclimated female Lewis rats, (Harlan; 200-250 g) were used in this experiment since this strain of rat is genetically highly susceptible to EAE. In the experiment, 100 mg/kg of N-isopropyl-α-(2-sulfofuran-5-yl)nitrone sodium salt (prepared in Example 1 above) or a vehicle alone (control) was administered po once a day from days 4 to 18. On day 1, the rats received an injection of 100 μg of MBP peptide, from guinea pig brain, plus 500 μg of H37RA Mycobacterium in 0.10 ml complete Freund's adjuvant divided equally between the two hind foot-pads.\nThe rats were evaluated on a 0-6 scale every day after day 7 until day 18 (effects usually begin day 10 and peak day 15). See E. Heber-Katz, “The Ups and Downs of EAE,” International Reviews Immunology, 9: 277-285 (1992). […] Results are expressed as a behavioral score ranging from 0 to 6."}, "[5]": {"system": "female Lewis rats", "experiment": "Prevention of weight loss in the EAE model", "type": "in vivo, rat", "details": "100 mg/kg po once a day, weighed daily", "protocol": "as §1\nTo determine if the furan nitrones of formula I prevented such weight loss, the animals in the EAE model described in Example 27 above were weighed daily."}}}
{"smiles": "CC(C)[N+]([O-])=Cc1ccc(S(=O)(=O)O)o1", "note": "[Example 1, N-Isopropyl-α-(2-sulfofuran-5-yl)nitrone]", "values": [{"measurement": "inhibition at 10 µM", "setting": "[1]", "value": "15 to 71", "unit": "%"}, {"measurement": "reduction of Aβ(1-40)-induced neuronal cell loss compared to the controls", "setting": "[2]", "value": 46, "unit": "%"}, {"measurement": "Rotations Over 15 Minute Period", "setting": "[3]; Aβ(25-35) + 10 mg/kg oral", "value": 9}, {"measurement": "Rotations Over 15 Minute Period", "setting": "[3]; Aβ(25-35) + 100 mg/kg oral", "value": 6}, {"measurement": "effect of MBP on behavioral score (0-6 scale)", "setting": "[4]", "value": "completely counteracted the effect of MBP"}, {"measurement": "weight change", "setting": "[5]", "value": "normal or above normal weight gain"}]}
